According to US7511145B2 (Genelabs Technologies, Inc., priority 2003, dated 2009):

Biological target: T1, HCV-NS5b (Hepatitis C virus genotype 1b, UniProt Q9WMX2)
T1 construct: (His)6 (C); made in house; host or cells: XL-1 cells (E. coli), IPTG-inducible plasmid, nickel-NTA purification
Experiment: HCV-NS5b enzyme assay (incorporation of radiolabeled UTP)
Assay type: biochemical
Settings: for inhibition at 33 µM: enzyme inhibition at compound concentration of 33 uM; for inhibition at 100 µM: read-out: % inh@100, enzyme inhibition at compound concentration of 100 uM
Description: The coding sequence of NS5b protein was cloned by PCR from pFKI389luc/NS3-3′/ET as described by Lohmann, V., et al. (1999) Science 285, 110-113 using the following primers: […]
The cloned fragment was missing the C terminus 21 amino acid residues. The cloned fragment was inserted into an IPTG-inducible expression plasmid that provided an epitope tag (His)6 at the carboxy terminus of the protein.
The recombinant enzyme was expressed in XL-1 cells and after induction of expression, the protein was purified using affinity chromatography on a nickel-NTA column. Storage condition was 10 mM Tris-HCl pH 7.5, 50 mM NaCl, 0.1 mM EDTA, 1 mM DTT, 20% glycerol at −20° C.
The polymerase activity was assayed by measuring incorporation of radiolabeled UTP into a RNA product using a biotinylated, heteropolymeric template, which included a portion of the HCV genome. Typically, the assay mixture (50 μL) contained 10 mM Tris-HCl (pH 7.5), 5 mM MgCl2, 0.2 mM EDTA, 10 mM KCl, 1 unit/μL RNAsin, 1 mM DTT, 10 μM each of NTP, including [^3H]-UTP, and 10 ng/μL heteropolymeric template. Test compounds were initially dissolved in 100% DMSO and further diluted in aqueous buffer containing 5% DMSO. Typically, compounds were tested at concentrations between 1 nM and 100 μM. Reactions were started with addition of enzyme and allowed to continue at 37° C. for 2 hours. Reactions were quenched with 8 μL of 100 mM EDTA and reaction mixtures (30 μL) were transferred to streptavidin-coated scintillation proximity microtiter plates (FlashPlates) and incubated at 4° C. overnight. Incorporation of radioactivity was determined by scintillation counting.
Shown in Table IX below are the values for enzyme inhibition measured at compound concentrations of 100 and 33 uM, (% inh@[…] and % inh@33, respectively). The percent inhibition values are calculated from the differential incorporation of radioactivity compared to a control reaction without compound: % inhibition=100−[(CountsINH−CountsBKG)/CountsCTRL−CountsBKG)×100 where CountsINH is the signal of the testwell with inhibitor, CountsBKG is the background signal and CountsCTRL is the signal of a testwell without inhibitor.

| SMILES | inhibition at 33 µM [%] | inhibition at 100 µM [%] |
| --- | --- | --- |
| O=C(O)c1ccc2c(c1)nc(-c1ccc3nc(-c4cccc(C(=O)N5CCCC5)c4)ccc3c1)n2C1CCCCC1 [Compound 370, 1-Cyclohexyl-2-{2-[3-(pyrrolidine-1-carbonyl)-phenyl]-quinolin-6-yl}-1H-benzoimidazole-5-carboxylic acid] | 97.8 | 99.7 |
| Nc1ccc(-c2ccc3cc(-c4nc5cc(C(=O)O)ccc5n4C4CCCCC4)ccc3n2)cc1Br [Compound 372, 2-[2-(4-amino-3-bromo-phenyl)-quinolin-6-yl]-1-cyclohexyl-1H-benzoimidazole-5-carboxylic acid] | 98.1 | 98.2 |
| O=C(O)c1ccc2c(c1)nc(-c1ccc3[nH]c(-c4ccccc4)cc(=O)c3c1)n2C1CCCCC1 [Compound 373, 1-cyclohexyl-2-(4-oxo-2-phenyl-1,4-dihydro-quinolin-6-yl)-1H-benzoimidazole-5-carboxylic acid] | 39.9 | 83.8 |
| NC(=O)c1cc(-c2ccc3cc(-c4nc5cc(C(=O)O)ccc5n4C4CCCCC4)ccc3n2)ccc1O [Compound 374, 2-[2-(3-carbamoyl-4-hydroxy-phenyl)-quinolin-6-yl]-1-cyclohexyl-1H-benzoimidazole-5-carboxylic acid] | 97.6 | 98.3 |
| O=C(O)c1ccc2c(c1)nc(-c1ccc3nc(-c4cc(OCC(=O)N5CCCC5)ccc4-c4ccc(Cl)cc4)ccc3c1)n2C1CCCCC1 [Compound 376, 2-{2-[4′-Chloro-4-(2-oxo-2-pyrrolidin-1-yl-ethoxy)-biphen-2-yl]-quinolin-6-yl}-1-cyclohexyl-1H-benzoimidazole-5-carboxylic acid] | 97.4 | 97.2 |
| NC(=O)CNC(=O)c1ccc(-c2ccccc2)c(-c2ccc3cc(-c4nc5cc(C(=O)O)ccc5n4C4CCCCC4)ccc3n2)c1 [Compound 377, 2-{2-[4-(Carbamoylmethyl-carbamoyl)-biphen-2-yl]-quinolin-6-yl}-1-cyclohexyl-1H-benzoimidazole-5-carboxylic acid] | 99.2 | 99.4 |
| CNC(=O)c1ccc(-c2ccc(Cl)cc2)c(-c2ccc3cc(-c4nc5cc(C(=O)O)ccc5n4C4CCCCC4)ccc3n2)c1 [Compound 378, 2-[2-(4′-chloro-4-methylcarbamoyl-biphen-2-yl)-quinolin-6-yl]-1-cyclohexyl-1H-benzoimidazole-5-carboxylic acid] | 100 | 101 |
| Cc1cc(-c2nc3cc(C(=O)O)ccc3n2C2CCCCC2)cc2ccc(-c3ccccc3-c3ccccc3)nc12 [Compound 379, 2-(2-Biphen-2-yl-8-methyl-quinolin-6-yl)-1-cyclohexyl-1H-benzoimidazole-5-carboxylic acid] | 93.3 | 97.8 |
| O=C(O)c1ccc2c(c1)nc(-c1ccc3nc(-c4ccccc4)cc(Nc4ccc(Cl)cc4)c3c1)n2C1CCCCC1 [Compound 380, 2-[4-(4-chloro-phenylamino)-2-phenyl-quinolin-6-yl]-1-cyclohexyl-1H-benzoimidazole-5-carboxylic acid] | 97.6 | 101 |
| O=C(O)c1ccc2c(c1)nc(-c1ccc3nc(-c4cc(O)cc(O)c4)ccc3c1)n2C1CCCCC1 [Compound 381, 1-cyclohexyl-2-[2-(3,5-dihydroxy-phenyl)-quinolin-6-yl]-1H-benzoimidazole-5-carboxylic acid] | 94.3 | 98 |
| COc1ccc(-c2ccc(C(N)=O)cc2)c(-c2ccc3cc(-c4nc5cc(C(=O)O)ccc5n4C4CCCCC4)ccc3n2)c1 [Compound 382, 2-[2-(4′-carbamoyl-4-methoxy-biphen-2-yl)-quinolin-6-yl]-1-cyclohexyl-1H-benzoimidazole-5-carboxylic acid] | 101 | 101 |
| COc1ccc(-c2ccc(CN)cc2)c(-c2ccc3cc(-c4nc5cc(C(=O)O)ccc5n4C4CCCCC4)ccc3n2)c1 [Compound 384, 2-[2-(4′-aminomethyl-4-methoxy-biphen-2-yl)-quinolin-6-yl]-1-cyclohexyl-1H-benzoimidazole-5-carboxylic acid] | 95.5 | 99.3 |
| NC(=O)[C@H](CO)NC(=O)c1ccc2cc(-c3nc4cc(C(=O)O)ccc4n3C3CCCCC3)ccc2n1 [Compound 385, 2-[2-(1-Carbamoyl-2-hydroxyethylcarbamoyl)quinolin-6-yl]-1-cyclohexyl-1H-benzimidazole-5-carboxylic acid] | 42.6 | 76.2 |
| O=C(O)c1ccc2c(c1)nc(-c1ccc3nc(-c4ccccc4)c(-c4ccccc4)cc3c1)n2C1CCCCC1 [Compound 386, 1-cyclohexyl-2-(2,3-diphenyl-quinolin-6-yl)-1H-benzoimidazole-5-carboxylic acid] | 100 | 99.9 |
| O=C(O)c1ccc2c(c1)nc(-c1ccc3nc(-c4ccccc4-c4ccc(Cl)cc4)ccc3c1)n2C1CCCCC1 [Compound 387, 2-[2-(4′-Chloro-biphen-2-yl)-quinolin-6-yl]-1-cyclohexyl-1H-benzoimidazole-5-carboxylic acid] | 99 | 98.7 |
| O=C(O)c1ccc2c(c1)nc(-c1cc3ccc(-c4ccccc4-c4ccccc4)nc3cc1F)n2C1CCCCC1 [Compound 388, 2-(2-Biphen-2-yl-7-fluoro-quinolin-6-yl)-1-cyclohexyl-1H-benzoimidazole-5-carboxylic acid] | 98.7 | 98.6 |
| Cc1ccc(-c2nc3ccc(-c4nc5cc(C(=O)O)ccc5n4C4CCCCC4)cc3nc2-c2ccc(C)cc2)cc1 [Compound 389, 1-Cyclohexyl-2-(2,3-di-p-tolylquinoxalin-6-yl)-1H-benzimidazole-5-carboxylic acid] | 99.9 | 99.5 |
| O=C(O)c1ccc2c(c1)nc(-c1ccc3nc(-c4ccc(-c5ccccc5)cc4)ccc3c1)n2C1CCCCC1 [Compound 390, 2-(2-biphenyl-4-yl-quinolin-6-yl)-1-cyclohexyl-1H-benzoimidazole-5-carboxylic acid] | 79.9 | 92.5 |
| Cc1nc(N)sc1-c1ccc2cc(-c3nc4cc(C(=O)O)ccc4n3C3CCCCC3)ccc2n1 [Compound 391] | 94.1 | 97.5 |
| O=C(O)c1ccc2c(c1)nc(-c1ccc3nc(CCCO)ccc3c1)n2C1CCCCC1 [Compound 392, 1-Cyclohexyl-2-[2-(3-hydroxy-propyl)-quinolin-6-yl]-1H-benzoimidazole-5-carboxylic acid] | 83.8 | 93.5 |
| O=C(O)COc1ccc(-c2ccc(Cl)cc2)c(-c2ccc3cc(-c4nc5cc(C(=O)O)ccc5n4C4CCCCC4)ccc3n2)c1 [Compound 393, 2-[2-(4-Carboxymethoxy-4′-chloro-biphen-2-yl)-quinolin-6-yl]-1-cyclohexyl-1H-benzoimidazole-5-carboxylic acid] | 97.6 | 96.9 |
| COc1cc(Br)c2oc(-c3ccc4cc(-c5nc6cc(C(=O)O)ccc6n5C5CCCCC5)ccc4n3)cc2c1 [Compound 394, 2-[2-(7-bromo-5-methoxy-benzofuran-2-yl)-quinolin-6-yl]-1-cyclohexyl-1H-benzoimidazole-5-carboxylic acid] | 98.9 | 100 |
